Data from patent US20140249135A1, “PIM KINASE INHIBITORS AND METHODS OF THEIR USE” (NOVARTIS AG, priority 2007, published 2014).
Like-named read-outs stand apart in the source and are kept apart here.

Experiments:
Assay type in all cases: biochemical
Pim1 kinase = Pim1 kinase (Homo sapiens, UniProt P11309); assay: Pim1 ATP depletion assay; details: Pim1 ATP depletion assay;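 note: Luciferase-luciferin luminescence readout of residual ATP after PIM1 transfers phosphate to a peptide substrate, 40 µM ATP added, reaction run to roughly half ATP consumption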
Pim2 kinase = Pim2 kinase (Homo sapiens, UniProt Q9P1W9); assay: Pim2 ATP depletion assay;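 note: Luciferase-based luminescent readout of ATP remaining after PIM2 phosphorylates a BAD peptide, final 5 nM enzyme, 4 µM ATP, 10 µM peptide, 2.5% DMSO, run to roughly half ATP consumption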
Pim3 kinase = Pim3 kinase (Homo sapiens, UniProt Q86V86); assay: Pim3 ATP depletion assay

Chain of Pim1 kinase (P11309 whole entry): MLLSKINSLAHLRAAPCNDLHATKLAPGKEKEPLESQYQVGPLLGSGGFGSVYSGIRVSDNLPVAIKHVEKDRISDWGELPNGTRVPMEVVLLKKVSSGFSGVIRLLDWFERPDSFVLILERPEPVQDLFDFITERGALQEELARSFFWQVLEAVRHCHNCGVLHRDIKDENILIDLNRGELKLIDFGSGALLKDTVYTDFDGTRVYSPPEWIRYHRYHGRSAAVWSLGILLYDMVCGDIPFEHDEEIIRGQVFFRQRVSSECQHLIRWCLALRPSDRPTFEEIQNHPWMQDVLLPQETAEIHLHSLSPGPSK
Chain of Pim2 kinase (Q9P1W9 whole entry): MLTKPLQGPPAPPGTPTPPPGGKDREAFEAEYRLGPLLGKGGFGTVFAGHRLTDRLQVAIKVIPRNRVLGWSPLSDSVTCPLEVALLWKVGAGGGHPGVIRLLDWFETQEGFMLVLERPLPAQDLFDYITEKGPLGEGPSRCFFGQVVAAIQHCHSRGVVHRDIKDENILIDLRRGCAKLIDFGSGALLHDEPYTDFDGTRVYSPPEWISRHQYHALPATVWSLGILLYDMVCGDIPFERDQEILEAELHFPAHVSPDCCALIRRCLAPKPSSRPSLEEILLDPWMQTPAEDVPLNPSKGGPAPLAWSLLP

IC50 (Pim1 kinase; read-out: IC50 (μM) PIM1) | IC50 (Pim2 kinase; read-out: IC50 (μM) PIM2) | IC50 (Pim3 kinase; read-out: IC50 (μM) PIM3) | IC50 (Pim1 kinase; read-out: PIM1 IC50) | IC50 (Pim2 kinase; read-out: PIM2 IC50) | IC50 (Pim3 kinase; read-out: PIM3 IC50) | SMILES
– | – | – | < 1 µM | < 1 µM | < 1 µM | Cc1nc(N)cc(-c2ccncc2NC(=O)c2nc(-c3ccccc3)ccc2N)n1 [Example 559, 3-Amino-6-phenyl-pyridine-2-carboxylic acid [4-(6-amino-2-methyl-pyrimidin-4-yl)-pyridin-3-yl]-amide]
– | – | – | < 1 µM | < 1 µM | < 1 µM | Cc1cc(-c2ccncc2NC(=O)c2nc(-c3cc(C(=O)NC(C)C)ccc3F)c(F)cc2N)nc(N)n1 [Example 560, 3-Amino-5-fluoro-6-(2-fluoro-5-isopropylcarbamoyl-phenyl)-pyridine-2-carboxylic acid [4-(2-amino-6-methyl-pyrimidin-4-yl)-pyridin-3-yl]-amide]
– | – | – | < 1 µM | < 1 µM | < 1 µM | Cc1nc(N)cc(-c2ccncc2NC(=O)c2nc(-c3cc(C(=O)N(C)C)ccc3F)c(F)cc2N)n1 [Example 561, 3-Amino-6-(5-dimethylcarbamoyl-2-fluoro-phenyl)-5-fluoro-pyridine-2-carboxylic acid [4-(6-amino-2-methyl-pyrimidin-4-yl)-pyridin-3-yl]-amide]
– | – | – | < 1 µM | < 1 µM | < 1 µM | CCCOc1ccc(F)c(-c2ccc(N)c(C(=O)Nc3cnccc3-c3cc(C)nc(N)n3)n2)c1F [Example 562, 3-Amino-6-(2,6-difluoro-3-propoxy-phenyl)-pyridine-2-carboxylic acid [4-(2-amino-6-methyl-pyrimidin-4-yl)-pyridin-3-yl]-amide]
– | – | – | < 1 µM | < 1 µM | < 1 µM | Cc1cc(-c2ccncc2NC(=O)c2nc(-c3cc(C(=O)NC(C)C)ccc3F)ccc2N)nc(N)n1 [Example 563, 3-Amino-6-(2-fluoro-5-isopropylcarbamoyl-phenyl)-pyridine-2-carboxylic acid [4-(2-amino-6-methyl-pyrimidin-4-yl)-pyridin-3-yl]-amide]
– | – | – | < 1 µM | < 1 µM | < 1 µM | Cc1cc(-c2ccncc2NC(=O)c2nc(-c3cc(C(=O)N(C)C)ccc3F)ccc2N)nc(N)n1 [Example 564, 3-Amino-6-(5-dimethylcarbamoyl-2-fluoro-phenyl)-pyridine-2-carboxylic acid [4-(2-amino-6-methyl-pyrimidin-4-yl)-pyridin-3-yl]-amide]
– | – | – | < 1 µM | < 1 µM | < 1 µM | CCCNC(=O)c1ccc(F)c(-c2ccc(N)c(C(=O)Nc3cnccc3-c3cc(N)nc(C)n3)n2)c1 [Example 565, 3-Amino-6-(2-fluoro-5-propylcarbamoyl-phenyl)-pyridine-2-carboxylic acid [4-(6-amino-2-methyl-pyrimidin-4-yl)-pyridin-3-yl]-amide]
– | – | – | < 1 µM | < 1 µM | < 1 µM | Nc1ccc(-c2cccc(CN3CCOCC3)c2)nc1C(=O)Nc1cnccc1N1CCC[C@H](N)C1 [Example 566, 3-Amino-6-(3-morpholin-4-ylmethyl-phenyl)-pyridine-2-carboxylic acid (3-amino-3,4,5,6-tetrahydro-2H-[1,4′]bipyridinyl-3′-yl)-amide]
– | – | – | < 1 µM | < 1 µM | < 1 µM | Nc1ccc(-c2ccc(CN3CCOCC3)cc2)nc1C(=O)Nc1cnccc1N1CCC[C@H](N)C1 [Example 567, 3-Amino-6-(4-morpholin-4-ylmethyl-phenyl)-pyridine-2-carboxylic acid (3-amino-3,4,5,6-tetrahydro-2H-[1,4′]bipyridinyl-3′-yl)-amide]
– | – | – | < 1 µM | < 1 µM | < 1 µM | N[C@H]1CCCN(c2ccncc2NC(=O)c2nc(-c3ccccc3)ccc2F)C1 [Example 568, 3-Fluoro-6-phenyl-pyridine-2-carboxylic acid (3-amino-3,4,5,6-tetrahydro-2H-[1,4′]bipyridinyl-3′-yl)-amide]

The next lines start with the compound.

SMILES | IC50 (Pim1 kinase; read-out: IC50 (μM) PIM1) | IC50 (Pim2 kinase; read-out: IC50 (μM) PIM2) | IC50 (Pim3 kinase; read-out: IC50 (μM) PIM3) | IC50 (Pim1 kinase; read-out: PIM1 IC50) | IC50 (Pim2 kinase; read-out: PIM2 IC50) | IC50 (Pim3 kinase; read-out: PIM3 IC50)
CCCOc1ccc(F)c(-c2ccc(N)c(C(=O)Nc3cnccc3-c3cc(N)nc(SC)n3)n2)c1F [Example 532, 3-Amino-6-(2,6-difluoro-3-propoxy-phenyl)-pyridine-2-carboxylic acid [4-(6-amino-2-methylsulfanyl-pyrimidin-4-yl)-pyridin-3-yl]-amide] | < 1 µM | < 1 µM | < 1 µM | – | – | –
CCCOc1ccc(F)c(-c2ccc(N)c(C(=O)Nc3cnccc3-c3cc(N)nc(C)n3)n2)c1F [Example 533, 3-Amino-6-(2,6-difluoro-3-propoxy-phenyl)-pyridine-2-carboxylic acid [4-(6-amino-2-methyl-pyrimidin-4-yl)-pyridin-3-yl]-amide] | < 1 µM | < 1 µM | < 1 µM | – | – | –
CSc1nc(N)cc(-c2ccncc2NC(=O)c2nc(-c3c(F)ccc(OC(C)C)c3F)ccc2N)n1 [Example 536, 3-Amino-6-(2,6-difluoro-3-isopropoxy-phenyl)-pyridine-2-carboxylic acid [4-(6-amino-2-methylsulfanyl-pyrimidin-4-yl)-pyridin-3-yl]-amide] | – | – | – | < 1 µM | < 1 µM | < 1 µM
Cc1nc(N)cc(-c2ccncc2NC(=O)c2nc(-c3c(F)ccc(OC(C)C)c3F)ccc2N)n1 [Example 537, 3-Amino-6-(2,6-difluoro-3-isopropoxy-phenyl)-pyridine-2-carboxylic acid [4-(6-amino-2-methyl-pyrimidin-4-yl)-pyridin-3-yl]-amide] | – | – | – | < 1 µM | < 1 µM | < 1 µM
Cc1cc(-c2ccncc2NC(=O)c2nc(-c3cc(C(=O)NC(C)C)ccc3F)ccc2N)cc(N)n1 [Example 539, 3-Amino-6-(2-fluoro-5-isopropylcarbamoyl-phenyl)-pyridine-2-carboxylic acid (2′-amino-6′-methyl-[4,4′]bi-pyridinyl-3-yl)-amide] | – | – | – | < 1 µM | < 1 µM | < 1 µM
CCNC(=O)c1ccc(F)c(-c2ncc(N)c(C(=O)Nc3cnccc3N3CCC[C@H](N)C3)n2)c1 [Example 540, 5-Amino-2-(5-ethylcarbamoyl-2-fluoro-phenyl)-pyrimidine-4-carboxylic acid (3-amino-3,4,5,6-tetrahydro-2H-[1,4′]bipyridinyl-3′-yl)-amide] | – | – | – | < 1 µM | < 1 µM | < 1 µM
CC(C)Oc1ccc(F)c(-c2ncc(N)c(C(=O)Nc3cnccc3N3CCC[C@H](N)C3)n2)c1 [Example 541, 5-Amino-2-(2-fluoro-5-isopropoxy-phenyl)-pyrimidine-4-carboxylic acid (3-amino-3,4,5,6-tetrahydro-2H-[1,4′]bi-pyridinyl-3′-yl)-amide] | – | – | – | < 1 µM | < 1 µM | < 1 µM
Nc1cnc(-c2cccc(F)c2F)nc1C(=O)Nc1cnccc1N1CCC[C@H](N)C1 [Example 546, 5-Amino-2-(2,3-difluoro-phenyl)-pyrimidine-4-carboxylic acid (3-amino-3,4,5,6-tetrahydro-2H-[1,4′]bipyridinyl-3′-yl)-amide] | – | – | – | < 1 µM | < 1 µM | < 1 µM
CCOc1ccc(F)c(-c2ncc(N)c(C(=O)Nc3cnccc3N3CCC[C@H](N)C3)n2)c1 [Example 548, 5-Amino-2-(5-ethoxy-2-fluoro-phenyl)-pyrimidine-4-carboxylic acid (3-amino-3,4,5,6-tetrahydro-2H-[1,4′]bipyridinyl-3′-yl)-amide] | – | – | – | < 1 µM | < 1 µM | < 1 µM
COc1ccccc1-c1ncc(N)c(C(=O)Nc2cnccc2N2CCC[C@H](N)C2)n1 [Example 551, 5-Amino-2-(2-methoxy-phenyl)-pyrimidine-4-carboxylic acid (3-amino-3,4,5,6-tetrahydro-2H-[1,4′]bipyridinyl-3′-yl)-amide] | – | – | – | < 1 µM | < 1 µM | < 1 µM
CC(C)NC(=O)c1ccc(F)c(-c2cccc(C(=O)Nc3cnccc3-c3cc(N)nc(C(F)(F)F)n3)n2)c1 [Example 553, 6-(2-Fluoro-5-isopropylcarbamoyl-phenyl)-pyridine-2-carboxylic acid [4-(6 amino-2-trifluoromethyl-pyrimidin-4-yl)-pyridin-3-yl]-amide] | – | – | – | < 1 µM | < 1 µM | < 1 µM
CC(C)NC(=O)c1ccc(F)c(-c2ccc(N)c(C(=O)Nc3cnccc3-c3cc(N)nc(C(F)(F)F)n3)n2)c1 [Example 554, 3-Amino-6-(2-fluoro-5-isopropylcarbamoyl-phenyl)-pyridine-2-carboxylic acid [4-(6-amino-2-trifluoromethyl-pyrimidin-4-yl)-pyridin-3-yl]-amide] | – | – | – | < 1 µM | < 1 µM | < 1 µM
CCc1cccc(-c2ccc(N)c(C(=O)Nc3cnccc3-c3cc(N)nc(C)n3)n2)c1 [Example 555, 3-Amino-6-(3-ethyl-phenyl)-pyridine-2-carboxylic acid [4-(6-amino-2-methyl-pyrimidin-4-yl)-pyridin-3-yl]-amide] | – | – | – | < 1 µM | < 1 µM | < 1 µM
Cc1csc(-c2ccc(N)c(C(=O)Nc3cnccc3-c3cc(N)nc(C)n3)n2)c1 [Example 556, 3-Amino-6-(4-methyl-thiophen-2-yl)-pyridine-2-carboxylic acid [4-(6-amino-2-methyl-pyrimidin-4-yl)-pyridin-3-yl]-amide] | – | – | – | < 1 µM | < 1 µM | < 1 µM
Cc1nc(N)cc(-c2ccncc2NC(=O)c2nc(-c3ccc(C(F)(F)F)cc3F)ccc2N)n1 [Example 557, 3-Amino-6-(2-fluoro-4-trifluoromethyl-phenyl)-pyridine-2-carboxylic acid [4-(6-amino-2-methyl-pyrimidin-4-yl)-pyridin-3-yl]-amide] | – | – | – | < 1 µM | < 1 µM | < 1 µM
Cc1ccc(-c2ccc(N)c(C(=O)Nc3cnccc3-c3cc(N)nc(C)n3)n2)c(F)c1 [Example 558, 3-Amino-6-(2-fluoro-4-methyl-phenyl)-pyridine-2-carboxylic acid [4-(6-amino-2-methyl-pyrimidin-4-yl)-pyridin-3-yl]-amide] | – | – | – | < 1 µM | < 1 µM | < 1 µM
